{"source": "patent US20250145715A1", "about": "“B7-H3 TARGETING FUSION PROTEINS AND METHODS OF USE THEREOF” (GT Biopharma, Inc., priority 2021, published 2025)", "format_in_all_cases": "cell-based, human", "key": {"U266 cells": {"test_system": "U266 cells", "assay": "IncuCyte Zoom NK cell killing of U266", "details": "bortezomib 10 nM with B7-H3-TriKE and NK cells, 48 hours", "description": "(§1) FIGS. 7A-7B illustrate the ability of peripheral blood NK cells with or without B7-H3-TriKE to kill myeloma cells in live imaging IncuCyte Zoom assays. FIG. 7A is a graph showing the effects with effector:target (E:T) ratios of 2:1 and 4:1 on MM1S cells. FIG. 7B is a graph showing the effects with effector:target (E:T) ratios of 2:1 and 4:1 on U266 cells.\n(§2) FIGS. 8A-8D illustrate the ability of peripheral blood NK cells with or without B7-H3-TriKE to kill myeloma cells in live imaging IncuCyte Zoom assays. FIG. 8A is a graph showing the effects with effector:target (E:T) ratios of 2:1 and 4:1 on H929 cells. FIG. 8B is a graph showing the effects with effector:target (E:T) ratios of 2:1 and 4:1 on MM1S cells. FIG. 8C is a graph showing the effects with effector:target (E:T) ratios of 2:1 and 4:1 on RPMI-8226 cells. FIG. 8D is a graph showing the effects with effector:target (E:T) ratios of 2:1 and 4:1 on U266 cells.\nFIGS. 9A-9D illustrate the efficacy of B7-H3-TriKE with the proteasome inhibitor bortezomib (10 nM) and the immunomodulatory drug lenalidomide (5 μM). FIG. 9A is a graph showing the effect of the combination therapy on H929 cells after 48 hours. FIG. 9B is a graph showing the effect of the combination therapy on RPMI-8226 cells after 48 hours. FIG. 9C is a graph showing the effect of the combination therapy on MM1S cells after 48 hours. […]"}, "MM1S cells": {"test_system": "MM1S cells", "assay": "IncuCyte Zoom NK cell killing of MM1S", "details": "bortezomib 10 nM or lenalidomide 5 μM with B7-H3 TriKE and NK cells, 48 hours; not statistically significant", "description": "as §1, §2\n(§3) FIGS. 9A-9D illustrate the efficacy of B7-H3-TriKE with the proteasome inhibitor bortezomib (10 nM) and the immunomodulatory drug lenalidomide (5 μM). FIG. 9A is a graph showing the effect of the combination therapy on H929 cells after 48 hours. FIG. 9B is a graph showing the effect of the combination therapy on RPMI-8226 cells after 48 hours. FIG. 9C is a graph showing the effect of the combination therapy on MM1S cells after 48 hours. FIG. 9D is a graph showing the effect of the combination therapy on U266 cells after 48 hours.\n(§4) The ability of peripheral blood NK cells with or without B7-H3-TriKE to kill myeloma cells was compared in live imaging IncuCyte Zoom assays with escalating doses of TriKE. Maximal killing occurred with 3 nM concentration.\n(§5) The efficacy of B7-H3-TriKE with the proteasome inhibitor bortezomib (10 nM) and the immunomodulatory drug lenalidomide (5 μM) was also tested. Cytotoxicity curves were compared by repeated measures ANOVA and performed in triplicate."}, "RPMI-8226 cells": {"test_system": "RPMI-8226 cells", "assay": "IncuCyte Zoom NK cell killing of RPMI-8226", "details": "bortezomib 10 nM or lenalidomide 5 μM with B7-H3-TriKE and NK cells, 48 hours", "description": "as §2, §3, §4, §5"}, "H929 cells": {"test_system": "H929 cells", "assay": "IncuCyte Zoom NK cell killing of H929", "details": "bortezomib 10 nM or lenalidomide 5 μM with B7-H3-TriKE and NK cells, 48 hours", "description": "as §2, §3, §4, §5"}, "T cells (CD56−CD3+)": {"test_system": "T cells (CD56−CD3+)", "assay": "T cell proliferation in PBMCs, CellTrace Violet dilution", "details": "7 days, 5 nM equimolar", "procedure": "FIGS. 2A-2H illustrates that cam1615B7-H3 TriKE induces potent, and specific, natural killer (NK) cell proliferation. Peripheral blood mononuclear cells (PBMCs) were CellTrace Violet labeled and incubated for seven days at 5 nM equimolar concentrations of rhIL-15 or cam1615B7-H3 TriKE. On day 7, the cells were harvested and stained for flow cytometric evaluation. […] FIG. 2B is a graph illustrating pooled data showing the overall proportion of NK cells that proliferated. FIG. 2C is a graph illustrating pooled data showing the proportion of NK cells that highly proliferated (measured as proliferation beyond three divisions). FIG. 2D is a graph illustrating pooled data showing NK cell counts in the cultures (N=9). FIG. 2E is a representative histogram showing T cell (CD56− CD3+) proliferation. FIG. 2F is a graph illustrating pooled data showing the overall proportion of T cells proliferated. FIG. 2G is a graph illustrating pooled data showing the proportion of T cells highly proliferated. FIG. 2H is a graph illustrating pooled data showing T cell counts in the cultures (N=9). * p<0.05, ** p<0.01, *** p<0.001.\nThe wild-type IL-15 moiety in the cam1615B7-H3 TriKE was designed to induce targeted delivery of a proliferative signal to NK cells. To test this, proliferation assays evaluating dilution of a CellTrace dye over a 7-day period were carried out on PBMCs treated with no treatment (NT), monomeric rhIL-15 (IL15), or the TriKE (cam1615B7-H3). At the end of the seven days, cells were harvested and proliferation was evaluated by gating on CD56+CD3− cells. […] Since IL-15 acts on both NK cells and T cells, specificity was evaluated next by gating on T cells (CD56-CD3+).\nTo measure the ability of the TriKE to specifically induce NK cell expansion via the IL-15 moiety, PBMCs from healthy donors were labeled with CellTrace Violet Proliferation Dye (Invitrogen, Carlsbad, CA, USA) according to kit specifications. After staining, cells were cultured with TriKEs at noted concentrations, or equimolar concentrations of controls, and incubated in a humidified atmosphere containing 5% CO2 at 37° C. for seven days. Cells were harvested, stained for viability with Live/Dead reagent (Invitrogen, Carlsbad, CA, USA) and surface stained for anti-CD56 PE/Cy7 (Biolegend, San Diego, CA, USA) and anti-CD3 PE-CF594 (BD Biosciences, Franklin Lakes, NJ, USA) to gate on the viable CD56+ CD3− NK cell population or the CD56-CD3+ T cell population. Data analysis was performed using FlowJo software (FlowJo LCC, version 7.6.5, Ashland, OR, USA)."}, "[1]": {"test_system": "OVCAR8 ovarian cancer cells", "assay": "NK cell CD107a / IFNγ flow cytometry against OVCAR8", "details": "individual components with PBMCs and OVCAR8", "procedure": "FIG. 29A is a graph illustrating pooled proportion of NK cells from healthy donors expressing CD107a+ (degranulation) against OVCAR8 and MA148 targets. FIG. 29B is a graph illustrating pooled proportion of NK cells from healthy donors expressing IFNγ cytokine production against OVCAR8 and MA148 targets.\nHealthy donor or ovarian cancer PBMC cells were incubated with ovarian tumor targets at 2:1 E:T ratio for 4 hrs with 30 nM TriKE or control condition. FIG. 30A is a graph illustrating pooled proportion of NK cells from healthy donors expressing CD107a+ (degranulation) against OVCAR8 targets (N=8). FIG. 30B is a graph illustrating pooled proportion of NK cells from healthy donors expressing IFNγ cytokine production against OVCAR8 targets (N=8). FIG. 30C is a graph illustrating pooled proportion of NK cells from healthy donors expressing CD107a+ (degranulation) against OVCAR3 targets (N=4). FIG. 30D is a graph illustrating pooled proportion of NK cells from healthy donors expressing IFNγ cytokine production against OVCAR3 targets (N=4). FIG. 30E is a graph illustrating pooled proportion of NK cells from healthy donors expressing CD107a+ (degranulation) against OVCAR5 targets (N=7). FIG. 30F is a graph illustrating pooled proportion of NK cells from healthy donors expressing IFNγ cytokine production against OVCAR5 targets (N=7). […] FIG. 30I is a graph illustrating that tumor killing was evaluated using IncuCyte imaging assay. […] The percentage of Live (Nuclight Red+Caspase 3/7−) tumor cells was quantified over a 48-h period and normalized to tumor alone. Readings were obtained every 15 min (representative of four separate experiments). * p<0.05, ** p<0.01, *** p<0.001, and **** p<0.0001.\nADCC was measured in a flow cytometry assay by evaluating degranulation via CD107a (lysosomal-associated membrane protein LAMP-1) and intracellular IFNγ production. […] Samples were washed and evaluated in an LSRII flow cytometer (BD Biosciences, San Jose, CA, USA).\nThe ability of cam1615B7-H3 TriKE to mediate NK cell activity against ovarian cancer cells was evaluated. […]"}}}
{"molecule": "CC(C)C[C@H](NC(=O)[C@H](Cc1ccccc1)NC(=O)c1cnccn1)B(O)O", "note": "[bortezomib, reference compound]", "values": [{"measurement": "killing of U266 in combination therapy", "setting": "U266 cells", "value": "enhanced killing"}, {"measurement": "killing of MM1S in combination therapy", "setting": "MM1S cells", "value": "trend toward improved killing"}, {"measurement": "killing of RPMI-8226 in combination therapy", "setting": "RPMI-8226 cells", "value": "synergistic killing"}, {"measurement": "killing of H929 in combination therapy", "setting": "H929 cells", "value": "did not further enhance killing"}]}
{"molecule": "Nc1cccc2c1CN(C1CCC(=O)NC1=O)C2=O", "note": "(stereo not drawn) [lenalidomide]", "values": [{"measurement": "killing of MM1S in combination therapy", "setting": "MM1S cells", "value": "trend toward improved killing"}, {"measurement": "killing of RPMI-8226 in combination therapy", "setting": "RPMI-8226 cells", "value": "synergistic killing"}, {"measurement": "killing of H929 in combination therapy", "setting": "H929 cells", "value": "synergistic killing"}]}
{"molecule": "rhIL-15: monomeric recombinant human IL-15 control [reference compound]", "values": [{"measurement": "overall T cell proliferation", "setting": "T cells (CD56−CD3+)", "value": "robust proliferation of T cells"}, {"measurement": "NK cell activity against OVCAR8 by individual components", "setting": "[1]", "value": "do not enhance NK cell activity"}]}
